Source: patent US20220401564A1 (DANA-FARBER CANCER INSTITUTE, INC., priority 2019, published 2022)

Legend:
[1] = biological target: T1, VHL (Homo sapiens, UniProt P40337); experiment: Cellular VHL engagement assay (BRD4BD2-GFP / mCherry reporter cells); type: cell-based; conditions: with 250 nM AT1, 5 h
T1 construct: Cells stably expressing the BRD4BD2-GFP with mCherry reporter (40) were seeded; endogenous in cells
Description: Cells stably expressing the BRD4BD2-GFP with mCherry reporter (40) were seeded at 30-50% confluency in 384-well plates with 50 μL per well of FluoroBrite™ DMEM media (Thermo Fisher Scientific, A18967) supplemented with 10% FBS a day before compound treatment. Compounds and 250 nM AT1((2S,4R)-1-(2R)-2-Acetamido-3-[[6-[2-[(6S)-4-(4-chlorophenyl)-2,3,9-trimethyl-6H-thieno[3,2-f][1,2,4]triazolo[4,3-a][1,4]diazepin-6-yl]acetamido]hexyl]thio]-3-methylbutanoyl]-4-hydroxy-N-[4-(4-methylthiazol-5-yl)benzyl)pyrrolidinine-2-carboxamide) were dispensed using a D300e Digital Dispenser (HP), normalized to 0.5% DMSO, and incubated with the cells for 5 h. The assay plate was imaged immediately using an Acumen® High Content Imager (TTP Labtech) with 488 nm and 561 nm lasers in a […] grid per well format. The resulting images were analyzed using CellProfiler™.
A series of image analysis steps (an ‘image analysis pipeline’) was constructed. First, the red and green channels were aligned and cropped to target the middle of each well (to avoid analysis of the heavily clumped cells at the edges). A background illumination function was calculated for both red and green channels of each well individually and subtracted to correct for illumination variations across the 384-well plate from various sources of error. An additional step was then applied to the green channel to suppress the analysis of large auto fluorescent artifacts and enhance the analysis of cell specific fluorescence by way of selecting for objects under a given size (30 A.U.) and with a given shape (speckles). mCherry-positive cells were then identified in the red channel by filtering for objects 8-60 pixels in diameter and by using intensity to distinguish between clumped objects. The green channel was then segmented into GFP positive and negative areas and objects were labeled as GFP positive if at least 40% of it overlapped with a GFP positive area. The fraction of GFP-positive cells/mCherry-positive cells in each well was then calculated, and the green and red images were rescaled for visualization.

[2] = biological target: HDAC3 (Homo sapiens, UniProt O15379); experiment: Change in cellular protein abundance (TMT proteomics) in Kelly cells; type: cell-based; parameters: relative change in relative protein abundance with treatment of Kelly cells; endogenous in cells; host or cells: Kelly cells; conditions: scatter plots FIG. 1 and FIG. 3
Description: Lysis buffer (8 M Urea, 50 mM NaCl, 50 mM 4-(2hydroxyethyl)-1-piperazineethanesulfonic acid (EPPS) pH 8.5, protease and phosphatase inhibitors from Roche®) were added to the cell pellets and homogenized by 20 passes through a 21 gauge (1.25 in. long) needle to achieve a cell lysate with a protein concentration between 1-4 mg mL-1. A micro-BCA assay (Pierce™) was used to determine the final protein concentration in the cell lysate. 200 μg of protein for each sample were reduced and alkylated as described in Donovan et al., Elife 7:e38430 (2018).
Proteins were precipitated using methanol/chloroform. Four volumes of methanol were added to the cell lysate, followed by one volume of chloroform, and finally three volumes of water. The mixture was vortexed and centrifuged to separate the chloroform phase from the aqueous phase. The precipitated protein was washed with three volumes of methanol, centrifuged and the resulting washed precipitated protein was allowed to air dry. The precipitated protein was resuspended in 4 M Urea, 50 mM HEPES pH 7.4, followed by dilution to 1 M urea with the addition of 200 mM EPPS, pH 8. Proteins were first digested with LysC (1:50; enzyme:protein) for 12 hours at room temperature. The LysC digestion was diluted to 0.5 M Urea with 200 mM EPPS pH 8 followed by digestion with trypsin (1:50; enzyme:protein) for 6 hours at 37° C. Tandem mass tag (TMT) reagents (Thermo Fisher Scientific) were dissolved in anhydrous acetonitrile (ACN) according to manufacturer's instructions.
Anhydrous ACN was added to each peptide sample to a final concentration of 30% v/v, and labeling was induced with the addition of TMT reagent to each sample at a ratio of 1:4 peptide:TMT label. The 10-plex labeling reactions were performed for 1.5 hours at room temperature and the reaction quenched by the addition of hydroxylamine to a final concentration of 0.3% for 15 minutes at room temperature. The sample channels were combined at a 1:1:1:1:1:1:1:1:1:1:1 ratio, desalted using Cis solid phase extraction cartridges (Waters®) and analyzed by LC-MS for channel ratio comparison. Samples were then combined using the adjusted volumes determined in the channel ratio analysis and dried down in a speed vacuum. The combined sample was then resuspended in 1% formic acid, and acidified (pH 2-3) before being subjected to desalting with C18 SPE (Sep-Pak®, Waters®). Samples were then offline fractionated into 96 fractions by high pH reverse-phase HPLC (Agilent® LC1260) through an aeris peptide xb-c18 column (Phenomenex®) with mobile phase A containing 5% acetonitrile and 10 mM NH4HCO3 in LC-MS grade H2O, and mobile phase B containing 90% acetonitrile and 10 mM NH4HCO3 in LC-MS grade H2O (both pH 8.0). The 96 resulting fractions were then pooled in a non-continuous manner into 24 fractions and these fractions were used for subsequent mass spectrometry analysis.
Data were collected using an Orbitrap Fusion™ Lumos™ mass spectrometer (Thermo Fisher Scientific, San Jose, Calif., USA) coupled with a Proxeon EASY-nLC™ 1200 LC pump (Thermo Fisher Scientific). Peptides were separated on an EasySpray™ ES803 75 μm inner diameter microcapillary column (ThermoFisher Scientific).
Each analysis used an MS3-based TMT method as described previously. The data were acquired using a mass range of m z 340-1350, resolution 120,000, automatic gain control (AGC) target 1×10^6, maximum injection time 100 ms, dynamic exclusion of 120 seconds for the peptide measurements in the Orbitrap Fusion™ Lumos™ mass spectrometer. Data dependent MS2 spectra were acquired in the ion trap with a normalized collision energy (NCE) set at 55%, AGC target set to 1.5×10^5 and a maximum injection time of 150 ms. […]

T1 sequence (P40337 whole entry, species assumed): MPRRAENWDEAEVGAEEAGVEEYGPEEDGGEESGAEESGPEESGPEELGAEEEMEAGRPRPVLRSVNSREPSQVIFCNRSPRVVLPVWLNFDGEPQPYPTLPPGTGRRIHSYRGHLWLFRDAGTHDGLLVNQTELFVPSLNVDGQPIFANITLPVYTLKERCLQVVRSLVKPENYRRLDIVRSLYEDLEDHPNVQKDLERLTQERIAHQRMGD
Chain of HDAC3 (O15379 whole entry): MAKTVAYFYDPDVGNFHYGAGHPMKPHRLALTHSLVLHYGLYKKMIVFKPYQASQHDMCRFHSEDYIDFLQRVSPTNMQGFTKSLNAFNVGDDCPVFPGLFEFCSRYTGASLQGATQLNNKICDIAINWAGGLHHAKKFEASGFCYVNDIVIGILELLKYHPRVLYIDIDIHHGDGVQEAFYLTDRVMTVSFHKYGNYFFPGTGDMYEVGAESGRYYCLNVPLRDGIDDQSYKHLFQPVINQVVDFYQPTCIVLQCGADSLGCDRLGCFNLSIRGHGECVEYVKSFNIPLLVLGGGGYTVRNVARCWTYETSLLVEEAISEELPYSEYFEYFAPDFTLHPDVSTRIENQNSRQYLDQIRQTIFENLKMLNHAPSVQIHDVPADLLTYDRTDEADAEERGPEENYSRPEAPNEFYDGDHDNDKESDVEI

Cc1ncsc1-c1ccc(CNC(=O)[C@@H]2C[C@@H](O)CN2C(=O)[C@@H](NC(=O)C2(F)CC2)C(C)(C)C)c(OCCOCCOCCN(CCc2c[nH]c3ccccc23)Cc2ccc(/C=C/C(=O)NO)cc2)c1 [Compound 8, (2S,4R)—N-(2-(2-(2-(2-((2-(1H-indol-3-yl)ethyl)(4-((E)-3-(hydroxyamino)-3-oxoprop-1-en-1-yl)benzyl)amino)ethoxy)ethoxy)ethoxy)-4-(4-methylthiazol-5-yl)benzyl)-1-((S)-2-(1-fluorocyclopropane-1-carboxamido)-3,3-dimethylbutanoyl)-4-hydroxypyrrolidine-2-carboxamide]
IC50 [1]: 10.1 µM

Cc1ncsc1-c1ccc([C@H](C)NC(=O)[C@@H]2C[C@@H](O)CN2C(=O)[C@@H](NC(=O)CCOCCOCCOCCOCCN(CCc2c[nH]c3ccccc23)Cc2ccc(/C=C/C(=O)NO)cc2)C(C)(C)C)cc1 [Compound 4]
IC50 [1]: 22.9 µM

Cc1ncsc1-c1ccc([C@H](C)NC(=O)[C@@H]2C[C@@H](O)CN2C(=O)[C@@H](NC(=O)CCOCCOCCOCCN(CCc2c[nH]c3ccccc23)Cc2ccc(/C=C/C(=O)NO)cc2)C(C)(C)C)cc1 [Compound 3, (2S,4R)-1-((S)-17-(tert-butyl)-3-(4-((E)-3-(hydroxyamino)-3-oxoprop-1-en-1-yl)benzyl)-1-(1H-indol-3-yl)-15-oxo-6,9,12-trioxa-3,16-diazaoctadecan-18-oyl)-4-hydroxy-N—((S)-1-(4-(4-methylthiazol-5-yl)phenyl)ethyl)pyrrolidine-2-carboxamide]
HDAC3 protein levels, relative protein abundance compared to DMSO control [2]: significant and selective reduction | IC50 [1]: 15.1 µM

Cc1ncsc1-c1ccc([C@H](C)NC(=O)[C@@H]2C[C@@H](O)CN2C(=O)[C@@H](NC(=O)CCOCCOCCOCCN(CCc2c[nH]c3ccccc23)Cc2ccc(/C=C/C(=O)Nc3ccccc3N)cc2)C(C)(C)C)cc1 [Compound 11, (2S,4R)-1-((S)-3-(4-((E)-3-((2-aminophenyl)amino)-3-oxoprop-1-en-1-yl)benzyl)-17-(tert-butyl)-1-(1H-indol-3-yl)-15-oxo-6,9,12-trioxa-3,16-diazaoctadecan-18-oyl)-4-hydroxy-N—((S)-1-(4-(4-methylthiazol-5-yl)phenyl)ethyl)pyrrolidine-2-carboxamide]
HDAC3 protein levels, relative protein abundance compared to DMSO control [2]: significant and selective reduction

Cc1ncsc1-c1ccc([C@H](C)NC(=O)[C@@H]2C[C@@H](O)CN2C(=O)[C@@H](NC(=O)CCOCCOCCOCCOCCOCCN(CCc2c[nH]c3ccccc23)Cc2ccc(/C=C/C(=O)NO)cc2)C(C)(C)C)cc1 [Compound 5, (2S,4R)-1-((S)-23-(tert-butyl)-3-(4-((E)-3-(hydroxyamino)-3-oxoprop-1-en-1-yl)benzyl)-1-(1H-indol-3-yl)-21-oxo-6,9,12,15,18-pentaoxa-3,22-diazatetracosan-24-oyl)-4-hydroxy-N—((S)-1-(4-(4-methylthiazol-5-yl)phenyl)ethyl)pyrrolidine-2-carboxamide]
HDAC3 protein levels, relative protein abundance compared to DMSO control [2]: significant and selective reduction | IC50 [1]: 19.3 µM

Cc1ncsc1-c1ccc([C@H](C)NC(=O)[C@@H]2C[C@@H](O)CN2C(=O)[C@@H](NC(=O)CCOCCOCCN(CCc2c[nH]c3ccccc23)Cc2ccc(/C=C/C(=O)Nc3ccccc3N)cc2)C(C)(C)C)cc1 [Compound 10]
HDAC3 protein levels, relative protein abundance compared to DMSO control [2]: significant and selective reduction | IC50 [1]: 9 µM

Cc1ncsc1-c1ccc([C@H](C)NC(=O)[C@@H]2C[C@@H](O)CN2C(=O)[C@@H](NC(=O)CCOCCOCCOCCOCCN(CCc2c[nH]c3ccccc23)Cc2ccc(/C=C/C(=O)Nc3ccccc3N)cc2)C(C)(C)C)cc1 [Compound 12, (2S,4R)-1-((S)-3-(4-((E)-3-((2-aminophenyl)amino)-3-oxoprop-1-en-1-yl)benzyl)-20-(tert-butyl)-1-(1H-indol-3-yl)-18-oxo-6,9,12,15-tetraoxa-3,19-diazahenicosan-21-oyl)-4-hydroxy-N—((S)-1-(4-(4-methylthiazol-5-yl)phenyl)ethyl)pyrrolidine-2-carboxamide]
HDAC3 protein levels, relative protein abundance compared to DMSO control [2]: significant and selective reduction
